We go through 26 molecules from patent US20230279025A1, “KRAS G12D INHIBITORS” (Mirati Therapeutics, Inc., priority 2020, published 2023).

For the experiment, the target named is KRas G12D (Homo sapiens (Human), UniProt P01116, G12D). The experiment in a line: KRas G12D Binding Assay (TR-FRET displacement of Cy5 labelled tracer). Conditions: GDP-loaded KRAS G12D (amino acids 1:169), 60 minute incubation at 22° C. Here is the method:
After a 60 minute incubation at 22° C., the reaction was measured using a PerkinElmer EnVision multimode plate reader via TR-FRET dual wavelength detection, and the percent of control (POC) calculated using a ratiometric emission factor. […] The POC values were fit to a 4-parameter logistic curve and the IC50 value was determined as the concentration where the curve crosses 50 POC.
ND stands for “not determined.”
(Time-resolved FRET reads energy transfer from a long-lived donor to a nearby acceptor.)

Sequence of KRas G12D (P01116 other isoform, or with tags, fused parts or gaps G12D): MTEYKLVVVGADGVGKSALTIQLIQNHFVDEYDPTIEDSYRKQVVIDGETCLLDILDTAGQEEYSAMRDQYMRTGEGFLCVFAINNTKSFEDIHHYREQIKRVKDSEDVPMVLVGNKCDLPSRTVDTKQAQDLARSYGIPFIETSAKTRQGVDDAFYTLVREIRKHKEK

One may read the IC50 as the concentration at which inhibition is half-maximal. Low values mean greater potency in that assay, high ones weaker potency in that assay. As to `O=C(CCl)N1CCC(Oc2nc(N3C[C@H]4CC[C@@H](C3)N4)c3cnc(-c4cccc5cccc(Cl)c45)c(F)c3n2)CC1` [Example 163, 1-(4-((4-((1R,5S)-3,8-diazabicyclo[3.2.1]octan-3-yl)-7-(8-chloronaphthalen-1-yl)-8-fluoropyrido[4,3-d]pyrimidin-2-yl)oxy)piperidin-1-yl)-2-chloroethan-1-one bis(2,2,2-trifluoroacetate)], the IC50 amounted to 5550 nM.
For `O[C@@H]1C[C@@H]2CN(c3nc(OCCc4nccn4C(F)F)nc4c(F)c(-c5cccc6cccc(Cl)c56)ncc34)C[C@H]1N2` [Example 166, (1R,5R,6R)-3-(7-(8-chloronaphthalen-1-yl)-2-(2-(1-(difluoromethyl)-1H-imidazol-2-yl)ethoxy)-8-fluoropyrido[4,3-d]pyrimidin-4-yl)-3,8-diazabicyclo[3.2.1]octan-6-ol] the value was 1290 nM; for `Cc1nccn1CCOc1nc(N2C[C@H]3C[C@@H](O)[C@@H](C2)N3)c2cnc(-c3cccc4cccc(Cl)c34)c(F)c2n1` [Example 167, (1R,5R,6R)-3-(7-(8-chloronaphthalen-1-yl)-8-fluoro-2-(2-(2-methyl-1H-imidazol-1-yl)ethoxy)pyrido[4,3-d]pyrimidin-4-yl)-3,8-diazabicyclo[3.2.1]octan-6-ol], 226 nM.
`O[C@@H]1C[C@@H]2CN(c3nc(OCCn4ccnc4CF)nc4c(F)c(-c5cccc6cccc(Cl)c56)ncc34)C[C@H]1N2` [Example 168, (1R,5R,6R)-3-(7-(8-chloronaphthalen-1-yl)-8-fluoro-2-(2-(2-(fluoromethyl)-1H-imidazol-1-yl)ethoxy)pyrido[4,3-d]pyrimidin-4-yl)-3,8-diazabicyclo[3.2.1]octan-6-ol] displayed an IC50 of 583 nM.
For `O[C@@H]1C[C@@H]2CN(c3nc(OCCn4ccnc4C(F)(F)F)nc4c(F)c(-c5cccc6cccc(Cl)c56)ncc34)C[C@H]1N2` [Example 169, (1R,5R,6R)-3-(7-(8-chloronaphthalen-1-yl)-8-fluoro-2-(2-(2-(trifluoromethyl)-1H-imidazol-1-yl)ethoxy)pyrido[4,3-d]pyrimidin-4-yl)-3,8-diazabicyclo[3.2.1]octan-6-ol] the value was 657 nM; for `O[C@@H]1C[C@@H]2CN(c3nc(OCCc4nccn4CF)nc4c(F)c(-c5cccc6cccc(Cl)c56)ncc34)C[C@H]1N2` [Example 170, (1R,5R,6R)-3-(7-(8-chloronaphthalen-1-yl)-8-fluoro-2-(2-(1-(fluoromethyl)-1H-imidazol-2-yl)ethoxy)pyrido[4,3-d]pyrimidin-4-yl)-3,8-diazabicyclo[3.2.1]octan-6-ol], 842 nM; for `OCc1nccn1CCOc1nc(N2CC3CCC(C2)N3)c2cnc(-c3cccc4cccc(Cl)c34)c(F)c2n1` [Example 171, (1-(2-((4-(3,8-diazabicyclo[3.2.1]octan-3-yl)-7-(8-chloronaphthalen-1-yl)-8-fluoropyrido[4,3-d]pyrimidin-2-yl)oxy)ethyl)-1H-imidazol-2-yl)methanol], 757 nM.
As for `O[C@@H]1C[C@@H]2CN(c3nc(OCCn4ccnc4C(F)F)nc4c(F)c(-c5cccc6cccc(Cl)c56)ncc34)C[C@H]1N2` [Example 172, (1R,5R,6R)-3-(7-(8-chloronaphthalen-1-yl)-2-(2-(2-(difluoromethyl)-1H-imidazol-1-yl)ethoxy)-8-fluoropyrido[4,3-d]pyrimidin-4-yl)-3,8-diazabicyclo[3.2.1]octan-6-ol], the figure is 689 nM; as for `Cc1cc(-c2ncc3c(N4C[C@H]5CC[C@@H](C4)N5)nc(OCC45CCCN4CCC5)nc3c2F)c2c(Cl)cccc2c1` [Example 175, 4-((1R,5S)-3,8-diazabicyclo[3.2.1]octan-3-yl)-7-(8-chloro-3-methylnaphthalen-1-yl)-8-fluoro-2-((hexahydro-1H-pyrrolizin-7a-yl)methoxy)pyrido[4,3-d]pyrimidine], 63.8 nM.
For `N=C(N)NCCOc1nc(N2CC3CCC(C2)N3)c2cnc(-c3cccc4cccc(Cl)c34)c(F)c2n1` [Example 176, 1-[2-[7-(8-chloro-1-naphthyl)-4-(3,8-diazabicyclo[3.2.1]octan-3-yl)-8-fluoro-pyrido[4,3-d]pyrimidin-2-yl]oxyethyl]guanidine] the value was 235 nM; for `N=C(N)NCCCOc1nc(N2CC3CCC(C2)N3)c2cnc(-c3cccc4cccc(Cl)c34)c(F)c2n1` [Example 177, 1-[3-[7-(8-chloro-1-naphthyl)-4-(3,8-diazabicyclo[3.2.1]octan-3-yl)-8-fluoro-pyrido[4,3-d]pyrimidin-2-yl]oxypropyl]guanidine], 187 nM.
On to `Nc1nccn1CCOc1nc(N2CC3CCC(C2)N3)c2cnc(-c3cccc4cccc(Cl)c34)c(F)c2n1` [Example 178, 1-[2-[7-(8-chloro-1-naphthyl)-4-(3,8-diazabicyclo[3.2.1]octan-3-yl)-8-fluoro-pyrido[4,3-d]pyrimidin-2-yl]oxyethyl]imidazol-2-amine], for which the IC50 worked out at 105 nM.
For `Fc1c(-c2cccc3cccc(-c4c[nH]nn4)c23)ncc2c(N3C[C@H]4CC[C@@H](C3)N4)nc(OCC34CCCN3CCC4)nc12` [Example 180, 7-(8-(1H-1,2,3-triazol-4-yl)naphthalen-1-yl)-4-((1R,5S)-3,8-diazabicyclo[3.2.1]octan-3-yl)-8-fluoro-2-((hexahydro-1H-pyrrolizin-7a-yl)methoxy)pyrido[4,3-d]pyrimidine] the value was 76.1 nM; for `Oc1cc(-c2ncc3c(N4C[C@H]5CC[C@@H](C4)N5)ncnc3c2F)c2ccccc2c1` [Example 181, 4-(4-((1R,5S)-3,8-diazabicyclo[3.2.1]octan-3-yl)-8-fluoropyrido[4,3-d]pyrimidin-7-yl)naphthalen-2-ol], 572 nM.
For `Nc1nc(N2CC3CCC(C2)N3)c2cnc(-c3cc(O)cc4ccccc34)c(F)c2n1` [Example 182, 4-[2-amino-4-(3,8-diazabicyclo[3.2.1]octan-3-yl)-8-fluoro-pyrido[4,3-d]pyrimidin-7-yl]naphthalen-2-ol] the value was 269 nM; for `CNc1nc(N2CC3CCC(C2)N3)c2cnc(-c3cc(O)cc4ccccc34)c(F)c2n1` [Example 183, 4-[4-(3,8-diazabicyclo[3.2.1]octan-3-yl)-8-fluoro-2-(methylamino)pyrido[4,3-d]pyrimidin-7-yl]naphthalen-2-ol], 393 nM.
With `CN(C)c1nc(N2CC3CCC(C2)N3)c2cnc(-c3cc(O)cc4ccccc34)c(F)c2n1` [Example 184, 4-[4-(3,8-diazabicyclo[3.2.1]octan-3-yl)-2-(dimethylamino)-8-fluoro-pyrido[4,3-d]pyrimidin-7-yl]naphthalen-2-ol], the IC50 is 1990 nM.
For `C#Cc1cccc2cc(O)cc(-c3ncc4c(N5C[C@H]6CC[C@@H](C5)N6)nc(OCC56CCCN5CCC6)nc4c3F)c12` [Example 185, 4-(4-((1R,5S)-3,8-diazabicyclo[3.2.1]octan-3-yl)-8-fluoro-2-((hexahydro-1H-pyrrolizin-7a-yl)methoxy)pyrido[4,3-d]pyrimidin-7-yl)-5-ethynylnaphthalen-2-ol] the value was 0.3 nM; for `Fc1c(-c2cccc3ccccc23)ncc2c(N3C[C@H]4CC[C@@H](C3)N4)nc(OCC34CCCN3CCC4)nc12` [Example 186, 4-((1R,5S)-3,8-diazabicyclo[3.2.1]octan-3-yl)-8-fluoro-7-(naphthalen-1-yl)-2-((tetrahydro-1H-pyrrolizin-7a(5H)-yl)methoxy)pyrido[4,3-d]pyrimidine], 29.2 nM.
For `CCc1cccc2cccc(-c3ncc4c(N5C[C@H]6CC[C@@H](C5)N6)nc(OCC56CCCN5CCC6)nc4c3F)c12` [Example 187, 4-((1R,5S)-3,8-diazabicyclo[3.2.1]octan-3-yl)-7-(8-ethylnaphthalen-1-yl)-8-fluoro-2-((tetrahydro-1H-pyrrolizin-7a(5H)-yl)methoxy)pyrido[4,3-d]pyrimidine] the value was 1.7 nM; for `C#Cc1cccc2cccc(-c3ncc4c(N5CC6CCC(C5)N6)ncnc4c3F)c12` [Example 188, 4-(3,8-diazabicyclo[3.2.1]octan-3-yl)-7-(8-ethynyl-1-naphthyl)-8-fluoro-pyrido[4,3-d]pyrimidine], 1920 nM; for `C#Cc1c(F)ccc2cccc(-c3ncc4c(N5C[C@H]6CC[C@@H](C5)N6)nc(OCC56CCCN5CCC6)nc4c3F)c12` [Example 189, 4-((1R,5S)-3,8-diazabicyclo[3.2.1]octan-3-yl)-7-(8-ethynyl-7-fluoronaphthalen-1-yl)-8-fluoro-2-((tetrahydro-1H-pyrrolizin-7a(5H)-yl)methoxy)pyrido[4,3-d]pyrimidine], 0.5 nM.
For `CN1CCC[C@H]1COc1nc(N2C[C@H]3CC[C@@H](C2)N3)c2cnc(-c3cc(O)cc4ccccc34)c(Cl)c2n1` [Example 191, 4-(4-((1R,5S)-3,8-diazabicyclo[3.2.1]octan-3-yl)-8-chloro-2-(((S)-1-methylpyrrolidin-2-yl)methoxy)pyrido[4,3-d]pyrimidin-7-yl)naphthalen-2-ol] the value was 69.1 nM.
`CN1CCC[C@H]1COc1nc(N2CC3CCC(C2)N3)c2cnc(-c3cccc4cccc(C#N)c34)c(F)c2n1` [Example 192] had an IC50 of 225 nM.
Turning to `OCC#Cc1cccc2cccc(-c3ncc4c(N5C[C@H]6CC[C@@H](C5)N6)nc(OCC56CCCN5CCC6)nc4c3F)c12` [Example 193, 3-(8-(4-((1R,5S)-3,8-diazabicyclo[3.2.1]octan-3-yl)-8-fluoro-2-((tetrahydro-1H-pyrrolizin-7a(5H)-yl)methoxy)pyrido[4,3-d]pyrimidin-7-yl)naphthalen-1-yl)prop-2-yn-1-ol], the IC50 is 12.5 nM.
The molecule `CN1CCC[C@H]1COc1nc(N2C[C@H]3CC[C@@H](C2)N3)c2cnc(-c3cccc4cccc(C#CCO)c34)c(F)c2n1` [Example 194, 3-(8-(4-((1R,5S)-3,8-diazabicyclo[3.2.1]octan-3-yl)-8-fluoro-2-(((S)-1-methylpyrrolidin-2-yl)methoxy)pyrido[4,3-d]pyrimidin-7-yl)naphthalen-1-yl)prop-2-yn-1-ol] had an IC50 of 151 nM.
